The results in this text go back to patent publication US5891901A, “Substituted pyrroles” (Hoffmann-La Roche Inc., priority 1997, dated 1999).

In one test the test system is MDA-MB435 cells. Briefly: Antiproliferative activity, MDA-MB435 epithelial breast carcinoma cell line (MTT). The note with it: Homo sapiens, MDA-MB-435, 120 h, MTT at day 5 post-drug addition, values marked * (Compounds A, B, D) are an average of two separate experiments, read-out: Antiproliferative Activity, MDAMB435 IC50. The format is cell-based. The method, then:
(§1) The epithelial breast carcinoma cell line, MDA-MB435 and the colon carcinoma cell line, SW480, were purchased from ATCC (American Type Culture Collection) and were grown in culture in medium as recommended by ATCC. For analysis of the effect of various compounds on growth of these cells, the cells were plated at a concentration of 1500 cells/well in a 96 well tissue culture plate ("test plate"). The day after the cells were plated, the compounds to be analyzed were dissolved in 100% DMSO (dimethyl sulfoxide) to yield a 10 mM stock solution. Each compound was diluted in H2 O to 1 mM and was added to triplicate wells in the first row of a 96 well master plate which contains medium to yield a final concentration of 40 μM. The compounds were then serially diluted in medium in the "master plate". The diluted compound(s) were then transferred to test plates containing cells. A row of vehicle "control cells" received DMSO. The final concentration of DMSO in each well was 0.1%. At day 5 post-drug addition, the plate containing MDA-MB435 cells were analyzed as follows. Plates containing SW480 cells were analyzed at day 7 post-drug addition as follows.
(§2) MTT ([3-(4,5-dimethylthiazole-2-yl)-2,5-diphenyl-2H-tetrazolium bromide]; thiazolyl blue) was added to each well to yield a final concentration of 1 mg/ml. The plate was then incubated at 37° C. for 21/2-3 hours. The MTT containing medium was then removed and 50 μl of 100% ethanol was added to each well to dissolve the formazan. The absorbences were then read using an automated plate reader (Bio-tek microplate reader). IC50 's were calculated using the Reed and Munsch equation, see, Am. J. Hygiene Vol. 27 pgs. 493-497, 1938.

A further test deals with SW480 cells. As to the kind of experiment: Antiproliferative activity, SW480 colon carcinoma cell line (MTT). Format: cell-based. The note with it: Homo sapiens, 168 h, MTT at day 7 post-drug addition, values marked * (Compounds A, B, C) are an average of two separate experiments. The procedure: as §1, §2

Structures are written as SMILES.

With `CSc1ccc2c(C3=C(c4cn(C)c5ccccc45)C(=O)NC3=O)cn(C)c2c1` [Compound B, 3-(6-methylsulfanyl-1-methyl-1H-indol-3-yl)-4-(1-methyl-1H-indol-3-yl)-pyrrole-2,5-dione], the values for the IC50 in the test with MDA-MB435 cells and with SW480 cells were 45 nM and 70 nM, respectively. For `Cc1ccc2c(C3=C(c4cn(C)c5ccccc45)C(=O)NC3=O)cn(C)c2c1` [Compound A, 3-(1,6-dimethyl-1H-indol-3-yl)-4-(1-methyl-1H-indol-3yl)-pyrrole-2,5-dione], the IC50 – broadly, the concentration needed to halve the response being measured – with MDA-MB435 cells was determined as 33 nM; with SW480 cells it was 29 nM. In the same order, the values of `Cn1cc(C2=C(c3cn(C)c4cc(O)ccc34)C(=O)NC2=O)c2ccccc21` [Compound C, 3-(6-hydroxy-1-methyl-1H-indol-3-yl)-4-(1-methyl-1H-indol-3-yl)-pyrrole-2,5-dione] are 30 nM and 70 nM.

In the case of `Cn1cc(C2=C(c3cn(C)c4cc(CC#N)ccc34)C(=O)NC2=O)c2ccccc21` [Compound E, {1-methyl-3-[4-(1-methyl-1H-indol-3-yl)-2,5-dioxo-2,5-dihydro-1H-pyrrol-3-yl]-1H-indol-6-yl}-acetonitrile], in the test on MDA-MB435 cells, the IC50 was 200 nM. Still for that read-out and setting: as for `CCc1ccc2c(C3=C(c4cn(C)c5ccccc45)C(=O)NC3=O)cn(C)c2c1` [Compound D, 3-(6-ethyl-1-methyl-1H-indol-3-yl)-4-(1-methyl-1H-indol-3-yl)-pyrrole-2,5-dione], the figure is 80 nM.
